In patent publication US12590099B2, “Inhibitors of histone deacetylase useful for the treatment or prevention of HIV infection” (Merck Sharp & Dohme LLC, priority 2018, dated 2026):

Experiments:
Recombinant human HDAC8 = molecular target: T1, Recombinant human HDAC8 (Homo sapiens, UniProt Q9BY41); experiment: Human HDAC enzyme inhibitor Fluor-de-Lys assay, HDAC8; assay type: biochemical; details: recombinant human HDAC8, Fluor-de-Lys assay
T1 construct: purchased Enzo Life Sciences BML-SE145-0100
T1 sequence (Q9BY41 1-377): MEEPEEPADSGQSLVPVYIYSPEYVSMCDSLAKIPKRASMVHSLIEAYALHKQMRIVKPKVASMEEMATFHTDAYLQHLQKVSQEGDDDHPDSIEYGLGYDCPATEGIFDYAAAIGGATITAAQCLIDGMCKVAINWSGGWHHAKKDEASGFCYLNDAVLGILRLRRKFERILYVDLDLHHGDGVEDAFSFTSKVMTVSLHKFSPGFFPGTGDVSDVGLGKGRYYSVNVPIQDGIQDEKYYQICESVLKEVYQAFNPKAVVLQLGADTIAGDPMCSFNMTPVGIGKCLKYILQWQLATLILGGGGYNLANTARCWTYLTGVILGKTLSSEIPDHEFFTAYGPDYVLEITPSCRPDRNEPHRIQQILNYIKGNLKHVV

HDAC6 = molecular target: T2, HDAC6 (Homo sapiens, UniProt Q9UBN7); experiment: Human HDAC enzyme inhibitor Fluor-de-Lys assay, HDAC6; assay type: biochemical; details: HDAC6, Fluor-de-Lys assay
T2 sequence (Q9UBN7 1-1215): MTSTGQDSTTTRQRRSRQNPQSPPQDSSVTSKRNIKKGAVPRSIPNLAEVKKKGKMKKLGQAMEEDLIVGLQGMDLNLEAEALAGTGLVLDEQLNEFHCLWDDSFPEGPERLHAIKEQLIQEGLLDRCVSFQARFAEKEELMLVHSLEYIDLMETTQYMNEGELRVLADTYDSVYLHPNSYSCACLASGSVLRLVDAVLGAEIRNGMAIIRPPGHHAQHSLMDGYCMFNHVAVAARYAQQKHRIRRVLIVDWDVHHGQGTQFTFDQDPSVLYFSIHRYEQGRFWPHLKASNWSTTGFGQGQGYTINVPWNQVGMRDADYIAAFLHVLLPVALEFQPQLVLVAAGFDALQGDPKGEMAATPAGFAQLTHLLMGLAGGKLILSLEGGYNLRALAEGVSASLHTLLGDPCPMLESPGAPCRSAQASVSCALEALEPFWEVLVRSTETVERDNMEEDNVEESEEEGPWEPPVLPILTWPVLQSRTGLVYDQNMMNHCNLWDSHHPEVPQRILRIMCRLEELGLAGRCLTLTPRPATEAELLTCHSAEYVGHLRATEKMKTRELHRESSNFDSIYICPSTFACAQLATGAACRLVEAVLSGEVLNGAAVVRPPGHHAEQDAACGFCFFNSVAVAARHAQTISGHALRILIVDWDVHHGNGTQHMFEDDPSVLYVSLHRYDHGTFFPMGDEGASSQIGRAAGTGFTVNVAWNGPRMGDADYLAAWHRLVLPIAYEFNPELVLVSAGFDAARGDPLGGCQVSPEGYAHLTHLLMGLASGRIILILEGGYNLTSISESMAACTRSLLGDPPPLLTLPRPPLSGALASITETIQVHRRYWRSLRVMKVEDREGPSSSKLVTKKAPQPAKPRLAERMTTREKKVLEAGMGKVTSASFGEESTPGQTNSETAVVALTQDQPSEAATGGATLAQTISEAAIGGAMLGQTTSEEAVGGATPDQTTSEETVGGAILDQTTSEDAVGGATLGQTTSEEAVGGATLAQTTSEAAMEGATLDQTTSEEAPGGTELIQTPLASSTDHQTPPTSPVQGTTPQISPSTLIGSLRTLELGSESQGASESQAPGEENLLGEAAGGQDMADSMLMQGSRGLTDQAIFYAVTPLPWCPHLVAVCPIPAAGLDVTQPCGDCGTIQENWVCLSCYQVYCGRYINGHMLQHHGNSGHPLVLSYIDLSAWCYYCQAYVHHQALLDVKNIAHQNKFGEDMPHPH

SMILES | IC50 (Recombinant human HDAC8) [µM] | IC50 (HDAC6) [µM]
CCC(=O)CCCCC[C@H](NC(=O)C1CC12CCN(CC)CC2)c1nc(-c2ccc(F)cc2)[nH]c1-c1ccsc1 (some centres unmarked) [Compound 250] | 38.3 | 21.9
CCC(=O)CCCCC[C@H](NC(=O)C1CC12CCN(CC)CC2)c1nc(-c2ccc(F)cc2)[nH]c1-c1ccn(C)c1 (some centres unmarked) [Compound 251] | 29.4 | 41.7
CCC(=O)CCCCC[C@H](NC(=O)C1CC12CCN(CC)CC2)c1nc(-c2ccc(F)cc2)[nH]c1-c1cccs1 (some centres unmarked) [Compound 252] | 29.6 | 33.9
CCC(=O)CCCCCC(NC(=O)C1CC12CCN(CC)CC2)c1nc(-c2ccc(F)cc2)[nH]c1-c1ccnn1C (centres unmarked) [Compound 253] | 26.8 | > 45
CCCn1cc(-c2[nH]c(-c3ccc(F)cc3)nc2C(CCCCCC(=O)CC)NC(=O)C2CC23CCN(CC)CC3)cn1 (centres unmarked) [Compound 254] | 38.7 | > 45
CCC(=O)CCCCC[C@H](NC(=O)[C@H]1CC12CCN(C)CC2)c1ncc(-c2cnc(OC)nc2)[nH]1 [Compound 255] | 5.79 | 12.1
CCC(=O)CCCCC[C@H](NC(=O)[C@H]1CC12CCN(C)CC2)c1ncc(-c2cnc3c(c2)ncn3C)[nH]1 [Compound 256] | 1.1 | 3.93
CCC(=O)CCCCC[C@H](NC(=O)[C@H]1CC12CCN(C)CC2)c1ncc(-c2cnc(-n3cc(C)cn3)nc2)[nH]1 [Compound 257] | 10.4 | 36.6
CCC(=O)CCCCC[C@H](NC(=O)[C@H]1CC12CCN(C)CC2)c1ncc(-c2ccc(C(=O)NC3CCOC3)cc2)[nH]1 (some centres unmarked) [Compound 258] | 16.4 | 38.7
CCC(=O)CCCCC[C@H](NC(=O)[C@H]1CC12CCN(C)CC2)c1ncc(-c2cnc3cccnc3c2)[nH]1 [Compound 259] | 6.14 | 3.14
CCC(=O)CCCCC[C@H](NC(=O)[C@H]1CC12CCN(C)CC2)c1ncc(-c2ccc(-n3nc(C)cc3C)cc2)[nH]1 [Compound 260] | > 15 | 28.4
CCC(=O)CCCCC[C@H](NC(=O)[C@H]1CC12CCN(C)CC2)c1ncc(-c2ccnc(N3CCOCC3)c2F)[nH]1 [Compound 261] | 4.59 | 2.47
CCC(=O)CCCCC[C@H](NC(=O)[C@H]1CC12CCN(C)CC2)c1ncc(-c2ccc(-c3cccnc3)nc2)[nH]1 [Compound 262] | 12.6 | 33.5
CCC(=O)CCCCC[C@H](NC(=O)[C@H]1CC12CCN(C)CC2)c1ncc(-c2cn(C)c3ccccc23)[nH]1 [Compound 264] | 1.14 | 1.71
CCC(=O)CCCCC[C@H](NC(=O)[C@H]1CC12CCN(C)CC2)c1ncc(-c2ccc3c(c2)c2ccccc2n3C)[nH]1 [Compound 265] | 4.6 | 0.63
CCOc1ncc(-c2cnc([C@H](CCCCCC(=O)CC)NC(=O)[C@H]3CC34CCN(C)CC4)[nH]2)cn1 [Compound 266] | 19.3 | 42.5
CCC(=O)CCCCC[C@H](NC(=O)[C@H]1CC12CCN(C)CC2)c1ncc(-c2ccc(C)nc2OC)[nH]1 [Compound 268] | 6.08 | 1.78
CCC(=O)CCCCC[C@H](NC(=O)C1=NOC2(CCN(CC)CC2)C1)c1ncc(-c2cc3ccc(C)nc3cc2F)o1 [Compound 269] | > 0.9 | > 0.9
CCC(=O)CCCCC[C@H](NC(=O)C1CCC2(CC1)CN(C(C)C)C2)c1ncc(-c2cc3ccccc3nc2OC)[nH]1 [Compound 272] | 1.25 | 0.449
CCC(=O)CCCCC[C@H](NC(=O)CC1CC2(C1)CN(C(C)C)C2)c1ncc(-c2cc3ccccc3nc2OC)[nH]1 [Compound 273] | 1.96 | 0.4

SMILES | IC50 (Recombinant human HDAC8) [µM] | IC50 (HDAC6) [µM]
CCC(=O)CCCCC[C@H](NC(=O)C1(N)CC2(CN(C)C2)C1)c1ncc(-c2cc3ccccc3nc2OC)[nH]1 [Compound 276] | 5 | 1.28
CCC(=O)CCCCC[C@H](NC(=O)[C@H]1CC12CCN(C)CC2)c1ncc(-c2ccc(F)cc2)[nH]1 [Compound 280] | 10.8 | 11.1
CCC(=O)CCCCC[C@H](NC(=O)[C@H]1CC12CCN(C)CC2)c1ncc(-c2ccc(C(F)(F)F)cc2)[nH]1 [Compound 284] | 15 | 13.4
CCC(=O)CCCCC[C@H](NC(=O)[C@H]1CC12CCN(C)CC2)c1ncc(-c2ccc(F)cc2F)[nH]1 [Compound 289] | 3.75 | 10.4
CCC(=O)CCCCC[C@H](NC(=O)[C@H]1CC12CCN(C)CC2)c1ncc(-c2ccccc2F)[nH]1 [Compound 290] | 5.23 | 5.99
CCC(=O)CCCCC[C@H](NC(=O)CC1CC2(CNC2)C1)c1ncc(-c2ccccc2)[nH]1 [Compound 297] | 8.46 | 8.17
CCC(=O)CCCCC[C@@H](NC(=O)C1CCC2(CC1)CNC2)c1ncc(-c2ccccc2)[nH]1 [Compound 298] | 1.69 | 5.07
CCC(=O)CCCCC[C@H](NC(=O)C1CCC2(CC1)CNC2)c1nnc(-c2cc3ccccc3nc2OC)o1 [Compound 299] | 27.8 | 2.36
CCC(=O)CCCCC[C@H](NC(=O)CC1CC2(C1)CN(C(C)=O)C2)c1ncc(-c2ccccc2)[nH]1 [Compound 300, (S)-2-(2-acetyl-2-azaspiro[3.3]heptan-6-yl)-N-(7-oxo-1-(5-phenyl-1H-imidazol-2-yl)nonyl)acetamide] | 11.1 | 23.2
CCC(=O)CCCCC[C@H](NC(=O)CC1CC2(CNC2)C1)c1nnc(-c2cc3ccccc3nc2OC)o1 [Compound 301] | 29.5 | 3.48
CCC(=O)CCCCC[C@H](NC(=O)C1CC12CCNCC2)c1nnc(-c2cc3ccccc3nc2OC)o1 (some centres unmarked) [Compound 303] | 29.2 | 0.982
CCC(=O)CCCCC[C@H](NC(=O)[C@@H]1CC12CCN(C)CC2)c1nnc(-c2cc3ccccc3nc2OC)o1 [Compound 305] | > 45 | 0.636
CCC(=O)CCCCC[C@H](NC(=O)[C@H]1CC12CCN(C)CC2)c1nnc(-c2cc3ccccc3nc2OC)o1 [Compound 306] | > 45 | 1.17
CCC(=O)CCCCC[C@H](NC(=O)CC1CC2(C1)CN(C)C2)c1ncc(-c2ccccc2)[nH]1 [Compound 307] | 13.5 | 12.1
CCC(=O)CCCCC[C@H](NC(=O)CC1CC2(C1)CN(C)C2)c1nnc(-c2cc3ccccc3nc2OC)o1 [Compound 308] | > 45 | 1.28
CCC(=O)CCCCC[C@@H](NC(=O)C1CCC2(CC1)CN(C)C2)c1ncc(-c2ccccc2)[nH]1 [Compound 310] | 6.5 | 6.05
CCC(=O)CCCCC[C@H](NC(=O)CC1CC2(C1)CN(C)C2)c1ncc(-c2cc3ccccc3nc2OC)[nH]1 [Compound 314] | 2.57 | 0.405
CCC(=O)CCCCC[C@H](NC(=O)C1NC(=O)CC12CN(C)C2)c1ncc(-c2cc3ccccc3nc2OC)[nH]1 (some centres unmarked) [Compound 317] | 4.89 | 0.186
CCC(=O)CCCCC[C@H](NC(=O)CC1CC2(C1)CN(C)C2)c1ncc(-c2cc3ccccc3nc2O)[nH]1 [Compound 326] | > 4.5 | > 1.5
CCC(=O)CCCCC[C@H](NC(=O)[C@H]1CC12CCN(CC)CC2)c1ncc(-c2cnc3cc(C(F)(F)F)ccc3c2)[nH]1 [Compound 341] | 11.9 | 8.97
